From patent US7740882B2, “Enhanced oral and transcompartmental delivery of therapeutic or diagnostic agents” (priority 2001, dated 2010)
“And” between values parts separate entries of the source, which are not always exact repeats. Identical values can stand only once. “Also recorded” adds a separate entry of the source.

Key:
[1] = system: colonic epithelial NCM460 cells; conditions: read-out: Km of biotin transport; literature; cited from earlier work
SMVT = target: T1, SMVT (Homo sapiens, UniProt Q9Y289); test: Inhibition of substrate uptake in CHO/hSMVT cells by 50 μM SMVT substrates; format: in vitro ADME; set-up: expressed in transfected cells; host or cells: CHO cells (ATCC), transient Lipofectamine transfection; plasmid was a gift of Dr. Puttur D. Prasad
T1 sequence (Q9Y289 1-635): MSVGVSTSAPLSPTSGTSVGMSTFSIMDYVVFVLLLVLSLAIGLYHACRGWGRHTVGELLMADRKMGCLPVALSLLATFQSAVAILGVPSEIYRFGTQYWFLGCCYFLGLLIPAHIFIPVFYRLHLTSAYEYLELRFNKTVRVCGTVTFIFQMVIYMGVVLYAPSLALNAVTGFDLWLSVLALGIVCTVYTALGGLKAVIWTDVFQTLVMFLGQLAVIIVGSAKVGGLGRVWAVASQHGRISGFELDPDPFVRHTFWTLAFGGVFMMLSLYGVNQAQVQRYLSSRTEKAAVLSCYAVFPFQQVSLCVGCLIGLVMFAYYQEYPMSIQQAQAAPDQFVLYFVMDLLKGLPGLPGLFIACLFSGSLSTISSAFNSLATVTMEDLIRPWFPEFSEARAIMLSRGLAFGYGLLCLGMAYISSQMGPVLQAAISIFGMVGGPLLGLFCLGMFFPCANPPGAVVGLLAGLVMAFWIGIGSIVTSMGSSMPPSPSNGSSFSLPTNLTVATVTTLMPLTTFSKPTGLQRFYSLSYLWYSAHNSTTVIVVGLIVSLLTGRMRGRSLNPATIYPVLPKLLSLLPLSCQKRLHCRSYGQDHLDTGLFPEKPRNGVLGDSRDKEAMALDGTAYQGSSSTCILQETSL

[2] = system: human intestinal brush-border membrane vesicles; conditions: read-out: Km of biotin transport; literature; cited from earlier work
CHO/pSPORT cells = test: Non-specific uptake in vector-transfected control CHO/pSPORT cells
Protocol: CHO Cell Uptake Studies CHO cells transiently transfected with hSMVT (CHO/hSMVT) were washed twice with 25 mM uptake buffer, containing 25 mM Hepes/Tris pH 7.5, 140 mM NaCl, 5.4 mM KCl, 1.8 CaCl2, 0.8 mM MgSO4 and 5 mM glucose, approximately 48 hours post-transfection. Subsequently, the cells were incubated with the permeant at 37° C. for 10 minutes. Uptake was stopped by washing the cells thrice with ice-cold buffer. Non-specific uptake was measured in parallel experiments with the control pSPORT vector-transfected CHO cells. Finally, the cells were solubilized by 0.1% v/v Triton X-100, and 0.6 ml was used for scintillation counting. […] Bovine serum albumin was used as the standard.
CHO Cell Uptake Studies CHO cells transiently transfected with hSMVT were washed twice with 25 mM uptake buffer, containing 25 mM Hepes/Tris pH 7.5, 140 mM NaCl, 5.4 mM KCl, 1.8 CaCl2, 0.8 mM MgSO4 and 5 mM glucose. […] Non-specific uptake was measured in parallel experiments with the control pSPORT vector-transfected CHO cells. […] From the remaining volume, 10 μl of solution was taken from each well and protein concentration was determined using the Bio-Rad reagent according to the manufacturer's instructions. […]
CHO Cell Uptake Studies. […] Non-specific uptake was measured in parallel experiments with the control pSPORT vector-transfected CHO cells. […]

Caco-2 cell monolayers = test: Absorptive (AP to BL) transport across Caco-2 cell monolayers; conditions: Caco-2 absorptive transport
Protocol: (§2) Caco-2 Cell Transport Studies An Ussing-type diffusion chamber system (Harvard Apparatus, Natick, Mass.) was used to perform transport studies. The apical solution was a MES Ringer's buffer (pH 6.5) consisting of 114.0 mM NaCl, 5.0 mM KCl, 1.1 mM MgSO4, 1.25 mM CaSO4, and 15 mM 2-(N-morpholino)ethanesulfonic acid (MES). The basolateral solution was a Ringer's buffer (pH 7.4) consisting of 114.0 mM NaCl, 5.0 mM KCl, 1.65 mM Na2HPO4, 0.3 mM NaH2PO4, 25 mM NaHCO3, 1.1 mM MgSO4, and 1.25 mM CaSO4. Both buffers contained 25 mM glucose and were adjusted to 290 mOsm/kg using a vapor pressure osmometer (Wescor Inc, Logan, Utah). For transport experiments using filters with cell monolayers, the inserts were rinsed with Ringer's buffet containing 25 mM glucose three times over a 20 min period at room temperature. The TEER was measured for each monolayer before it was mounted onto the diffusion chamber, which was pre-warmed to 37° C. by placement on the heating blocks. The volume of each half-chamber was 5 ml and the surface area of the Snapwell™ filters available for drug transport was 1 cm^2. […] The donor solution consisted of radiolabeled permeant in the apical buffer [apical (AP) to basolateral (BL) study]. Starting at 30 min, samples were taken from the receptor chamber every 15 min until the end of the experiment (105 min). A minimum of three monolayers was used to determine the permeability of test compound in each study and sample analysis was performed using scintillation counting (Perkin Elmer, Gaithersburg, Md.).
(§3) The Michaelis-Menten kinetic parameters of Caco-2 and CHO cell transport were then estimated using non-linear regression.
(§4) Prior to experimentation, diffusion chambers mounted with the Snapwells™ containing Caco-2 cells were equilibrated at 5° C., 10° C., 15° C., 25° C. and 37° C.
(§5) [formula] where Pe is the effective permeability of the substrate transported, Cs is the substrate concentration and Pm and Pc represent the passive and carrier-mediated component of the permeability. All data were initially fitted to a 3-parameter model (Pc, Pm, Km for Caco-2 studies, Jmax, Pm, Km for CHO studies).
(§6) Caco-2 Cell Transport Studies An Ussing-type diffusion chamber system (Harvard Apparatus, Natick, Mass.) was used to perform transport studies. The apical solution was a MES Ringer's buffer (pH 6.5) consisting of 114.0 mM NaCl, 5.0 mM KCl, 1.1 mM MgSO4, 1.25 mM CaSO4, and 15 mM 2-(N-morpholino)ethanesulfonic acid (MES). The basolateral solution was a Ringer's buffer (pH 7.4) consisting of 114.0 mM NaCl, 5.0 mM KCl, 1.65 mM Na2HPO4, 0.3 mM NaH2PO4, 25 mM NaHCO3, 1.1 mM MgSO4, and 1.25 mM CaSO4. Both buffers contained 25 mM glucose and were adjusted to 290 mOsm/kg using a vapor pressure osmometer (Wescor Inc, Logan, Utah). For transport experiments using filters with cell monolayers, the inserts were rinsed with Ringer's buffer containing 25 mM glucose three times over a 20 min period at room temperature. The TEER was measured for each monolayer before it was mounted onto the diffusion chamber, which was pre-warned to 37° C. by placement on the heating blocks.

[3] = target: T2, human sodium dependent multivitamin transporter, hSMVT (Homo sapiens, UniProt Q9Y289); test: Uptake in CHO cells transiently transfected with hSMVT (CHO/hSMVT); conditions: for Pm, passive uptake component: CHO/hSMVT cellular uptake, (S.D), n = 3
T2 sequence (Q9Y289 1-635): T1 sequence (Q9Y289 1-635)
Protocol: (§1) CHO Cell Uptake Studies CHO cells transiently transfected with hSMVT (CHO/hSMVT) were washed twice with 25 mM uptake buffer, containing 25 mM Hepes/Tris pH 7.5, 140 mM NaCl, 5.4 mM KCl, 1.8 CaCl2, 0.8 mM MgSO4 and 5 mM glucose, approximately 48 hours post-transfection. Subsequently, the cells were incubated with the permeant at 37° C. for 10 minutes. Uptake was stopped by washing the cells thrice with ice-cold buffer. Non-specific uptake was measured in parallel experiments with the control pSPORT vector-transfected CHO cells. Finally, the cells were solubilized by 0.1% v/v Triton X-100, and 0.6 ml was used for scintillation counting. From the remaining volume, 10 μl of solution was taken from each well and protein concentration was determined using the Bio-Rad reagent according to the Bradford technique [M. Bradford, A rapid and sensitive method of quantitation of microgram quantities of protein utilizing the principle of protein-dye binding, Anal. Biochem. 72 (1976) 248]. Bovine serum albumin was used as the standard.
Parallel uptake experiments were performed using CHO/pSPORT control cells.
as §1, with “hSMVT” for “hSMVT (CHO/hSMVT)”, “glucose.” for “glucose, approximately 48 hours post-transfection.”, “Washing” for “Uptake was stopped by washing”, “three times” for “thrice”, “buffer stopped drug uptake.” for “buffer.”, “manufacturer's instructions.” for “Bradford technique [M. Bradford, A rapid and sensitive method of quantitation of microgram quantities of protein utilizing the principle of protein-dye binding, Anal. Biochem. 72 (1976) 248].”
as §1, with “Studies.” for “Studies”, “glucose.” for “glucose, approximately 48 hours post-transfection.”, “manufacturer's instructions.” for “Bradford technique [M. Bradford, A rapid and sensitive method of quantitation of microgram quantities of protein utilizing the principle of protein-dye binding, Anal. Biochem. 72 (1976) 248].”

rat small intestine = conditions: read-out: Km of biotin transport; literature; cited from earlier work
in vitro = conditions: human, Caco-2
Protocol: as §2, §3, §4, §5, §6

TAR RNA = conditions: unpublished results of the inventors
[4] = system: bovine brain microvessel endothelial cells (BBMECs); test: Transport (permeability) across BBMEC monolayers, in vitro BBB model; conditions: read-out: Km of transport and uptake; BBMECs
Protocol: Non-biotinylated PEGs were used in the control studies.
Isolation and culture of BBMECs. Bovine Brain Microvessel Endothelial Cells (BBMECs) were used as an in vitro model of BBB. BBMECs were isolated from bovine brain by a two-step enzymatic method and the cells were cultured on collagen coated Transwell™ plates or polystyrene plates in an atmosphere of 95% air and 5% CO2 at 37° C. Transendothelial electrical resistance (TEER) and several molecular markers were used to validate the integrity of the cell culture system.
The cells were cultured on 12-well Transwell™ filters for 7-8 days and transport was evaluated. […] All studies were performed at 37° C.

Compound	Km [1]	inhibition of RI-K(biotin)-Tat9 uptake (SMVT; 0.1 μM RI-K(biotin)-Tat9, inhibitor 50 μM)	inhibition of biotin-PEG-3400 uptake (SMVT; 0.1 μM biotin-PEG-3400, inhibitor 50 μM)	inhibition of PEG:(RI-K(biotin)-Tat9)8 uptake (SMVT; 0.1 μM conjugate, inhibitor 50 μM)	Km [2]	uptake in CHO/pSPORT cells (CHO/pSPORT cells)	Km (Caco-2 cell monolayers)	Pm, passive uptake component [3]	Jmax ([3]; uptake in CHO/hSMVT cells)	Km (rat small intestine)	Papp at 105 min (in vitro)	TAR RNA binding activity (TAR RNA)	Jmax without Pm component in the regression model ([3]; CHO/hSMVT)	uptake of substrate alone (control of inhibition study) ([3]; CHO/hSMVT, 0.1 μM, 10 min)	uptake, fold greater than RI-K-Tat9 ([3]; CHO/hSMVT, at 10 μM)	Km ([3]; uptake in CHO/hSMVT cells, 10 min, 37° C.)	Km [4]
O=C(O)CCCC[C@@H]1SC[C@@H]2NC(=O)N[C@@H]21 [Biotin, biotin]	19.7 µM	significantly inhibited; also recorded: significantly lowered (p<0.001)	significantly (p<0.01) inhibited	significantly lower (p<0.05)	5.26 µM	23.73 pmol/mg protein/10 min	11.3 µM	3.50 (3.0) pmol/mg protein/10 min	174.61±47.53 pmol/mg protein/10 min and 174.61 (47.53) pmol/mg protein/10 min	8.77 µM	3.35 ×10⁻⁶ cm/s						
N-acetyl-D-Lys:(ε-biotin)-D-Arg-D-Arg-D-Arg-D-Gln-D-Arg-D-Arg-D-Lys-D-Lys-D-Arg-NH2 [RI-K(biotin)-Tat9]							3.27 µM	32.90 (4.48) pmol/mg protein/10 min	227.26±29.33 pmol/mg protein/10 min and 227.26 pmol/mg protein/10 min and 227.26 (29.33) pmol/mg protein/10 min			comparable TAR RNA binding activity to Tat9-K(biotin)	675.95 pmol/mg protein/10 min	~41.93 pmol/mg protein/10 min	~500 fold	1 ± 0.13 µM	~40 µM
